Test results reported in patent US9034861B2, “MEK inhibitors useful in the treatment of diseases” (Allomek Therapeutics LLC, priority 2009, dated 2015).
Like-named read-outs stand apart in the source and are kept apart here.

Columns and labels:
[1] = test system: Colo205 cells; assay: Proliferation / cell survival assay (CellTiterGlo, 72 hour); format: cell-based; conditions: Homo sapiens, COLO 205; Colo205, BRAF mutation; average of two experiments; read-out: IC50, in vitro cell survival / proliferation
Protocol: (§1) In vitro studies of variety of tumor cells lines with prevalent mutations in RAS/RAF genes were performed for anti-proliferative activity (functional assay). This was compared with wild type cell line for selectivity. MEK kinase assay was performed in the presence and in the absence of ATP to define its allosteric inhibitory mode of action; Effect on ERK phosphorylation was studied to establish its cellular mechanism of action.
(§2) Colo205, Caki-1, HepG2, HCT116 and HT29 cells were obtained from American Type Culture Collection. Colo205, Caki-1, HepG2 cells were grown in RPMI 1640 medium supplemented with L-glutamine (Invitrogen) and 10% Fetal Bovine Serum (Hyclone) at 37° C. in a humidified, 5% CO2 incubator. HCT116 and HT29 cells were grown in DMEM medium supplemented with L-glutamine (Invitrogen) and 10% Fetal Bovine Serum (Hyclone) at 37° C. in a humidified, 5% CO2 incubator.
(§3) Proliferation assay was done by plating 2,000 cells/well in 100 μL of DMEM/10% FBS or RPMI/10% media in a 96-well plate and incubated overnight at 37° C. in a humidified, 5% CO2 incubator. Media was replaced with fresh 100 μL of fresh RPMI/10% FBS media or DMEM/10% FBS media containing various concentrations of the compounds. Compounds were added at 3-fold dilutions, concentrations ranging from 3.3 μM to 4.5 nM. After 72 hour incubation with the compounds at 37° C. in a humidified, 5% CO2 incubator, cell viability was measured in a luminometer after the addition of 100 μL/well CellTiterGlo reagent (Promega). IC50s were calculated using SoftMax software.

[2] = test system: HCT116 cells; assay: as above; format: cell-based; conditions: Homo sapiens, HCT-116; HCT116, K-Ras mutation; average of two experiments; read-out: IC50, in vitro cell survival / proliferation
Protocol: as §1, §2, §3

[3] = test system: Caki-1 cells; assay: as above; format: cell-based; conditions: Homo sapiens; Caki (Caki-1), WT; average of two experiments; read-out: IC50, in vitro cell survival / proliferation
Protocol: as §1, §2, §3

[4] = test system: HT29 cells; assay: as above; format: cell-based
Protocol: as §1, §2, §3

[5] = test system: HepG2 cells; assay: as above; format: cell-based; conditions: Homo sapiens; HepG2, N-Ras mutation; average of two experiments; read-out: IC50, in vitro cell survival / proliferation
Protocol: as §1, §2, §3

[6] = target: T1, recombinant full-length human GST-MEK1 (Homo sapiens, UniProt Q02750); assay: MEK Enzyme Inhibitory Assay (ADP-Glo); format: biochemical
T1 construct: Purified recombinant full-length human GST-MEK1; GST; purchased Cell Signaling Technology, Inc (Beverly, Mass., USA)
T1 sequence (Q02750 whole entry): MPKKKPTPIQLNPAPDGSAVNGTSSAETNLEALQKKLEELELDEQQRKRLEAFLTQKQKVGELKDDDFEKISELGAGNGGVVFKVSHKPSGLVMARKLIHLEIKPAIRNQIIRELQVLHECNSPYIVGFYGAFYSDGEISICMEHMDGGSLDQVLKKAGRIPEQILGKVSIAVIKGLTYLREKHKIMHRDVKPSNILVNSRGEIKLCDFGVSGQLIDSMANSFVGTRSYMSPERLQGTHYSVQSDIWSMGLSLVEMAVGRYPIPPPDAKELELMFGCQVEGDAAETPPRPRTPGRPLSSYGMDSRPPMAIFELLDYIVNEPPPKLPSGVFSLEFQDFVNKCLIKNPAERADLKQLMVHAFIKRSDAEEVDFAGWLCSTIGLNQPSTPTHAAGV
Protocol: Materials and preparation of reagents: Purified recombinant full-length human GST-MEK1 was purchased from Cell Signaling Technology, Inc (Beverly, Mass., USA). MAP kinase substrate Erk1/Erk2 peptide was purchased from Enzo Life Sciences (Plymouth Meeting, Pa., USA).
Determination of enzymatic activity: Compounds were diluted three-fold in dimethylsulfoxide (DMSO) ranging from 1 mM to 1.37 μM concentration. A typical 20-microliter assay contained 80 ng MEK1, 4 μg Erk1/Erk2 peptide, 100 μM or 1 mM ATP, 1 μM to 1.37 nM test compound in 1× assay buffer containing 5 mM MOPS, pH 7.2, 2.5 mM β-glycerophosphate, 1 mM EGTA, 0.4 mM EDTA, 5 mM MgCl2, 0.05 mM DTT. Enzyme reaction was incubated at room temperature for 90 minutes. At the end of kinase reaction, 20 μL of ADP-Glo reagent (Promega, Madison, Wis., USA) was added and incubated at room temperature for 40 minutes. Forty μL of kinase detection reagent (Promega) was added and incubated at room temperature for 1 h. Chemiluminescence was read and IC50s calculated using SoftMax software.

[7] = Homo sapiens, HT-29, HT29, BRAF mutation, average of two experiments, read-out: IC50, in vitro cell survival / proliferation
[8] = Homo sapiens, HT-29, HT29 proliferation, class symbols, read-out: HT29 IC50

## O=S1(=O)Nc2c(cc(F)c(F)c2Nc2ccc(I)cc2F)OCC(O)C(O)CC12CC2 (racemic) [Example 8]
[1]
  IC50: 0.017 µM
[2]
  IC50: 0.544 µM
[3]
  IC50: > 1 µM
[4]; [7]
  IC50: 0.021 µM
[4]; [8]
  IC50: < 0.1 µM
[5]
  IC50: 0.015 µM
[6]
  IC50: 0.021 µM

## O=S1(=O)Nc2c(cc(F)c(F)c2Nc2ccc(I)cc2F)OCC(O)C(O)CC12CC2 (single isomer, unassigned) [Example 8a]
[4]; HT29 proliferation, class symbols, read-out: HT29 IC50
  IC50: < 0.1 µM

## O=S1(=O)Nc2c(cc(F)c(F)c2Nc2ccc(I)cc2F)OCC(O)C(O)CC12CC2 (single isomer, unassigned) [Example 8b]
[4]; [8]
  IC50: 0.1 to 0.5 µM

## O=S1(=O)Nc2c(cc(F)c(F)c2Nc2ccc(I)cc2F)OC/C=C/CC12CC2 [Example 1]
[4]; [8]
  IC50: 0.1 to 0.5 µM

## O=S1(=O)Nc2c(cc(F)c(F)c2Nc2ccc(Br)cc2F)OCC(O)C(O)CC12CC2 (centres unmarked) [Example 9]
[4]; [8]
  IC50: > 0.5 µM

## O=S1(=O)Nc2c(cc(F)c(F)c2Nc2ccc(I)cc2)OCC(O)C(O)CC12CC2 (centres unmarked) [Example 10]
[4]; [8]
  IC50: 0.1 to 0.5 µM

## O=S1(=O)Nc2c(cc(F)c(F)c2Nc2ccc(I)cc2Cl)OCC(O)C(O)CC12CC2 (centres unmarked) [Example 11]
[4]; [8]
  IC50: 0.1 to 0.5 µM

## O=S1(=O)Nc2c(Nc3ccc(I)cc3F)cc(F)cc2OCC(O)C(O)CC12CC2 (centres unmarked) [Example 13]
[4]; [8]
  IC50: < 0.1 µM

## COc1cc(F)c(NS(=O)(=O)C2(CC(O)CO)CC2)c(Nc2ccc(I)cc2F)c1F (centres unmarked) [Example 15, N-(3,6-difluoro-2-(2-fluoro-4-iodophenylamino)-4-methoxyphenyl)-1-(2,3-dihydroxypropyl)cyclopropane-1-sulfonamide]
[4]; [8]
  IC50: 0.1 to 0.5 µM

## COc1cc(F)c(NS(=O)(=O)C2(CC(O)CO)CC2)c(Nc2ccc(Br)cc2F)c1F (centres unmarked) [Example 16]
[4]; [8]
  IC50: > 0.5 µM

## COc1cc(F)c(NS(=O)(=O)C2(CC(O)CO)CC2)c(Nc2ccc(I)cc2F)c1 (centres unmarked) [Example 17]
[4]; [8]
  IC50: < 0.1 µM

## O=S1(=O)Nc2c(cc(F)c(F)c2Nc2ccc(I)cc2F)OCCCCC12CC2 [Example 19]
[4]; [8]
  IC50: > 0.5 µM

## COc1cc(F)c(F)c(Nc2ccc(I)cc2F)c1NS(=O)(=O)C1(C[C@H](O)CO)CC1 [RDEA 119, reference compound]
[1]
  IC50: 0.02 µM
[2]
  IC50: 0.461 µM
[3]
  IC50: > 1 µM
[4]; [7]
  IC50: 0.02 µM
[5]
  IC50: 0.017 µM
